From patent US20250381179A1, “CHROMAN-BASED COMPOUNDS FOR TREATING CANCER” (priority 2024, published 2025) come the findings set out here.

The series concerns the target T1, human cytochrome P450 CYP2C8 (Homo sapiens, UniProt P10632).
T1 sequence (P10632 1-490): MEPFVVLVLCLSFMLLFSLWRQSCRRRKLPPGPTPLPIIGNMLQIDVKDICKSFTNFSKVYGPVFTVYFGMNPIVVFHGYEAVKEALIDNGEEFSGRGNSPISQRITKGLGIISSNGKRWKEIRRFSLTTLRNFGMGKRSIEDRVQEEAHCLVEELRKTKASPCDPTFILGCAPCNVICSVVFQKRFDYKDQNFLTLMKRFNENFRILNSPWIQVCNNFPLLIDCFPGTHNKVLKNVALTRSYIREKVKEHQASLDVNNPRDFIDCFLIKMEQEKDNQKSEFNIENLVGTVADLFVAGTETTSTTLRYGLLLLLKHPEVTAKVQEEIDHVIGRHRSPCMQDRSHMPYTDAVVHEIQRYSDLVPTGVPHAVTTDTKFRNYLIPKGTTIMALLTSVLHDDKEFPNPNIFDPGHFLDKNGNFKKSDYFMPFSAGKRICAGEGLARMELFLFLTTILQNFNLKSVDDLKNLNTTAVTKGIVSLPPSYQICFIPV
Put plainly: In vitro metabolism by CYP2C8. Type of series: in vitro ADME.

Structures are written as SMILES.

Take `O=C1CC[C@H](N2Cc3cc(N4CCN(CC5CCN(c6ccc([C@@H]7c8ccc(O)cc8OC[C@@H]7c7ccccc7)cc6F)CC5)CC4)ccc3C2=O)C(=O)N1` [compound (1-g), (S)-3-(5-(4-((1-(2-fluoro-4-((3S,4R)-7-hydroxy-3-phenylchroman-4-yl)phenyl)piperidin-4-yl)methyl)piperazin-1-yl)-1-oxoisoindolin-2-yl)piperidine-2,6-dione]: the “metabolism by CYP2C8” value was “weakly metabolized”.
